Read-outs that look alike come from different tables or passages of the source.
Experiments:
Bmi-1 [1] = test: Cell Model Assay: Bmi-1 expression in HT1080; assay type: cell-based, human; conditions: HT1080 (fibrosarcoma)
Experimental: (§1) Using assay conditions known to those skilled in the art, the ability of the compounds described herein to reduce Bmi-1 expression in HT1080 (fibrosarcoma), U87-MG (glioblastoma), T98G (glioblastoma), K562 (chronic myelogenous leukemia) and KG1 (acute myelogenous leukemia) cell lines was tested (at test compound concentrations calculated from the ELISA assay data shown in Example 1) compared to puromycin as a control to provide the EC50 values shown in Table 2. The term “ND” means that data was not determined.

MCL-Mino = test: Mantle Cell Lymphoma Assay: cytotoxicity, Mino; assay type: cell-based; conditions: MCL-Mino, 72 hrs; for viability at 0.004 µM / viability at 0.037 µM / viability at 0.11 µM / viability at 0.33 µM / viability at 1 µM / viability at 3 µM: Homo sapiens, read-out: Cell Viability (%)
From the text: (§2) MCL cell lines Jeko, Mino, and Rec-1 were provided by American Type Culture Collection: The Bioresource Center (Manassas, Va.). […] Carlsbad, Calif.) in T-75 culture flasks. Cell concentration was maintained between 2 to 3×10^5 cells/mL. Early passage cells (passages 2-4) were used for all experiments. Ficoll-Histopaque density sedimentation (Sigma Aldrich) was used for separation of debris and purification of cell lines prior to experiments. […] The cytotoxic effect of test compounds on the MCL-cell lines was assessed by measuring cell concentration and cell viability using a Beckman Coulter Vi-Cell Counter. Controls and treated cells were harvested and counted at day 3.

MM cell line = test: Multiple Myeloma Assay; assay type: cell-based; conditions: 72 hrs in culture
MCL-Rec1 = test: Mantle Cell Lymphoma Assay: cytotoxicity, Rec-1; assay type: cell-based; conditions: 72 hrs; for viability at 0.004 µM / viability at 0.037 µM / viability at 0.11 µM / viability at 0.33 µM / viability at 1 µM / viability at 3 µM: Homo sapiens, read-out: Cell Viability (%)
From the text: as §2

Bmi-1 [2] = test: Cell Model Assay: Bmi-1 expression in T98G; assay type: cell-based; conditions: T98G (glioblastoma)
Experimental: as §1

Bmi-1 [3] = test: Cell Model Assay: Bmi-1 expression in U87-MG; assay type: cell-based; conditions: U87-MG (glioblastoma)
Experimental: as §1

[4] = system: Jeko, Mino and Rec-1 cells; test: cells; assay type: cell-based; conditions: 72 h, read-out: decrease in cell viability

Structure (SMILES) | EC50 (Bmi-1 [1]) | viability at 0.004 µM (MCL-Mino; 0.004 μM) | viability at 0.037 µM (MCL-Mino; 0.037 μM) | viability at 0.11 µM (MCL-Mino; 0.11 μM) | viability at 0.33 µM (MCL-Mino; 0.33 μM) | viability at 1 µM (MCL-Mino; 1 μM) | viability at 3 µM (MCL-Mino; 3 μM) | Cell Concentration (×10^6) (MCL-Mino; 0.004 μM) | Cell Concentration (×10^6) (MCL-Mino; 0.037 μM) | Cell Concentration (×10^6) (MCL-Mino; 0.11 μM) | Cell Concentration (×10^6) (MCL-Mino; 0.33 μM) | Cell Concentration (×10^6) (MCL-Mino; 1 μM) | Cell Concentration (×10^6) (MCL-Mino; 3 μM) | Cell Concentration, MM cell line (MM cell line; dose 0.004 μM) | viability at 0.004 µM (MM cell line; dose 0.004 μM) | Cell Concentration, MM cell line (MM cell line; dose 0.037 μM) | viability at 0.037 µM (MM cell line; dose 0.037 μM) | Cell Concentration, MM cell line (MM cell line; dose 0.11 μM) | viability at 0.11 µM (MM cell line; dose 0.11 μM) | Cell Concentration, MM cell line (MM cell line; dose 0.33 μM) | other results
COc1ccc(Nc2nc(-c3c(C)nc4ncccn34)cs2)cc1 [Cpd 14, N-(4-methoxyphenyl)-4-(2-methylimidazo[1,2-a]pyrimidin-3-yl)thiazol-2-amine] | 3 nM | 92.27 ± 0.38% | 64.5 ± 16.6% | 40.6 ± 1.91% | 18.1 ± 1.78% | 13.5 ± 1.85% | 14.1 ± 0.28% | 1.26 ± 0.01 ×10^6 | 0.66 ± 0.24 ×10^6 | 0.23 ± 0.01 ×10^6 | 0.06 ± 0.01 ×10^6 | 0.05 ± 0.01 ×10^6 | 0.05 ± 0.00 ×10^6 | 0.84 ± 0.01 ×10^6 | 84.53 ± 0.4% | 0.22 ± 0.00 ×10^6 | 54.4 ± 0.98% | 0.21 ± 0.01 ×10^6 | 54.9 ± 2.79% | 0.21 ± 0.01 ×10^6 | viability at 0.33 µM (MM cell line; dose 0.33 μM): 57.7 ± 1.33%; Cell Concentration, MM cell line (MM cell line; dose 1 μM): 0.24 ± 0.01 ×10^6; viability at 1 µM (MM cell line; dose 1 μM): 60.9 ± 1.26%; Cell Concentration, MM cell line (MM cell line; dose 3 μM): 0.25 ± 0.01 ×10^6; viability at 3 µM (MM cell line; dose 3 μM): 59.9 ± 1.32%; viability at 0.004 µM (MCL-Rec1; MCL-Rec1, 0.004 μM): 88.1 ± 0.88%; viability at 0.037 µM (MCL-Rec1; MCL-Rec1, 0.037 μM): 84.5 ± 0.66%; viability at 0.11 µM (MCL-Rec1; MCL-Rec1, 0.11 μM): 34.4 ± 3.25%; viability at 0.33 µM (MCL-Rec1; MCL-Rec1, 0.33 μM): 8.93 ± 0.15%; viability at 1 µM (MCL-Rec1; MCL-Rec1, 1 μM): 9.83 ± 0.33%; viability at 3 µM (MCL-Rec1; MCL-Rec1, 3 μM): 9.5 ± 0.35%; Cell Concentration (×10^6) (MCL-Rec1; MCL-Rec1, 0.004 μM): 1.52 ± 0.02 ×10^6; Cell Concentration (×10^6) (MCL-Rec1; MCL-Rec1, 0.037 μM): 1.22 ± 0.02 ×10^6; Cell Concentration (×10^6) (MCL-Rec1; MCL-Rec1, 0.11 μM): 0.24 ± 0.03 ×10^6; Cell Concentration (×10^6) (MCL-Rec1; MCL-Rec1, 0.33 μM): 0.05 ± 0.00 ×10^6; Cell Concentration (×10^6) (MCL-Rec1; MCL-Rec1, 1 μM): 0.05 ± 0.00 ×10^6; Cell Concentration (×10^6) (MCL-Rec1; MCL-Rec1, 3 μM): 0.05 ± 0.00 ×10^6; EC50 (Bmi-1 [2]): < 4 nM; EC50 (Bmi-1 [3]): 8 nM; cytotoxicity at 0.08 µM [4]: 70 to 90%
COc1cc(Br)c(Nc2nc(-c3c(C)nc4ncccn34)cs2)c(Br)c1 [Cpd 1, N-(2,6-dibromo-4-methoxyphenyl)-4-(2-methylimidazo[1,2-a]pyrimidin-3-yl)thiazol-2-amine] | 390 nM | 94.7 ± 0.2% | 95.1 ± 0.2% | 94.6 ± 0.2% | 94.5 ± 0.3% | 89.4 ± 0.4% | 59.3 ± 0.5% | 1.53 ± 0.07 ×10^6 | 1.53 ± 0.05 ×10^6 | 1.55 ± 0.02 ×10^6 | 1.50 ± 0.02 ×10^6 | 0.74 ± 0.02 ×10^6 | 0.20 ± 0.01 ×10^6 | 1.02 ± 0.03 ×10^6 | 90.07 ± 0.34% | 1.06 ± 0.01 ×10^6 | 89.53 ± 0.71% | 1.13 ± 0.02 ×10^6 | 90.33 ± 0.1% | 1.10 ± 0.02 ×10^6 | viability at 0.33 µM (MM cell line; dose 0.33 μM): 90.63 ± 0.28%; Cell Concentration, MM cell line (MM cell line; dose 1 μM): 0.54 ± 0.03 ×10^6; viability at 1 µM (MM cell line; dose 1 μM): 85.4 ± 0.58%; Cell Concentration, MM cell line (MM cell line; dose 3 μM): 0.39 ± 0.02 ×10^6; viability at 3 µM (MM cell line; dose 3 μM): 79.03 ± 0.45%; viability at 0.004 µM (MCL-Rec1; MCL-Rec1, 0.004 μM): 91.9 ± 0.5%; viability at 0.037 µM (MCL-Rec1; MCL-Rec1, 0.037 μM): 91.7 ± 0.4%; viability at 0.11 µM (MCL-Rec1; MCL-Rec1, 0.11 μM): 91.7 ± 0.2%; viability at 0.33 µM (MCL-Rec1; MCL-Rec1, 0.33 μM): 90.9 ± 0.2%; viability at 1 µM (MCL-Rec1; MCL-Rec1, 1 μM): 85 ± 0.6%; viability at 3 µM (MCL-Rec1; MCL-Rec1, 3 μM): 56.3 ± 0.4%; Cell Concentration (×10^6) (MCL-Rec1; MCL-Rec1, 0.004 μM): 1.66 ± 0.12 ×10^6; Cell Concentration (×10^6) (MCL-Rec1; MCL-Rec1, 0.037 μM): 1.74 ± 0.05 ×10^6; Cell Concentration (×10^6) (MCL-Rec1; MCL-Rec1, 0.11 μM): 1.73 ± 0.02 ×10^6; Cell Concentration (×10^6) (MCL-Rec1; MCL-Rec1, 0.33 μM): 1.66 ± 0.01 ×10^6; Cell Concentration (×10^6) (MCL-Rec1; MCL-Rec1, 1 μM): 0.96 ± 0.08 ×10^6; Cell Concentration (×10^6) (MCL-Rec1; MCL-Rec1, 3 μM): 0.32 ± 0.01 ×10^6; EC50 (Bmi-1 [2]): 220 nM; EC50 (Bmi-1 [3]): 420 nM; cytotoxicity at 0.08 µM ([4]; Jeko, Mino and Rec-1 cells, 80 nM, 75 nM and 80 nM, after 3 days of treatment): 70 to 90%

— patent US8680113B2, “BMI-1 protein expression modulators” (PTC Therapeutics, Inc., priority 2008, dated 2014)
